Solubility data for two compounds are collected here from patent EP4620304A1, “FORMULATION COMPRISING CLOMAZONE AND DIURON” (Adama Agan Ltd., priority 2024, dated 2025).

≈ marks a conversion by molar mass, not a printed value. Read-outs that look alike come from different tables or passages of the source.

A short description of this series: Solubility in clomazone or propylene glycol by visual verification (turbidity). It is filed as physicochemical. The note with it: organic solvent or mixture, thermodynamic from solid. The protocol:
All solubilities mentioned in the present document were measured through visual verification. In a known quantity of clomazone or propylene glycol at a desired temperature, the solute (e.g. hexazinone or diuron) was added at a rate of 0.2g/5min.

Take `CN(C)c1nc(=O)n(C2CCCCC2)c(=O)n1C` [Hexazinone]: the solubility (commonly how much of the substance goes into solution per volume) is, setting by setting: (23 °C, Solubility of Hexazinone in Clomazone) 53 mg/mL (≈ 210 mM); (23 °C, Solubility of Hexazinone in Propileneglycol) 510 mg/mL (≈ 2020 mM); (40 °C, Solubility of Hexazinone in Clomazone) 62 mg/mL (≈ 246 mM); (40 °C, Solubility of Hexazinone in Propileneglycol) 580 mg/mL (≈ 2300 mM); (54 °C, Solubility of Hexazinone in Clomazone) 73 mg/mL (≈ 289 mM); (54 °C, Solubility of Hexazinone in Propileneglycol) 630 mg/mL (≈ 2500 mM).

For the compound `CN(C)C(=O)Nc1ccc(Cl)c(Cl)c1` [Diuron], the solubility by setting is: (23 °C, 23 °C, read-out: Solubility of Diuron in Clomazone) 28 mg/mL (≈ 120 mM); (40 °C, 40 °C, read-out: Solubility of Diuron in Clomazone) 36 mg/mL (≈ 154 mM); (54 °C, 54 °C, read-out: Solubility of Diuron in Clomazone) 61 mg/mL (≈ 262 mM).
